Legend:
Cavia porcellus [1] = assay: Percentage decrease in bronchodilator activity against serotonin-induced bronchospasm reaction in guinea pig by intraveneous administration at dose 250 ug/kg; assay type: functional
Cavia porcellus [2] = assay: Percent decrease in bronchodilator activity against acetylcholine-induced bronchospasm reaction in guinea pig by intraveneous administration at dose 250 ug/kg; assay type: functional
Rattus norvegicus [3] = assay: Percent decrease in antiallergic activity by antigen/antibody reaction assay in rat by oral administration at a dose of 10 mg/kg; assay type: functional
Rattus norvegicus [4] = assay: Percentage decrease in antiallergic activity against cutaneous reaction to histamine in rat, by oral administration at a dose of 10 mg/kg; assay type: functional
Cavia porcellus [5] = assay: Percent decrease in bronchodilator activity against histamine-induced bronchospasm reaction in guinea pig by intraveneous administration at dose 10.5 ug/kg
Rattus norvegicus [6] = assay: Percent protection against Passive Cutaneous Anaphylaxis in rat after 2.0 hr at dose 100 mg/kg by peroral administration through antigen or antibody reaction; assay type: functional; conditions: route oral
Rattus norvegicus [7] = assay: Percent protection against Passive Cutaneous Anaphylaxis in rat after 2.0 hr at dose 100 mg/kg by peroral administration through exogenous histamine reaction; assay type: functional; conditions: route oral
Rattus norvegicus [8] = assay: Percent protection against Passive Cutaneous Anaphylaxis in rat after 3.0 hh at dose 100 mg/kg by peroral administration through antigen or antibody reaction; assay type: functional; conditions: route oral
Rattus norvegicus [9] = assay: Percent protection against Passive Cutaneous Anaphylaxis in rat after 3.0 hh at dose 100 mg/kg by peroral administration through exogenous histamine reaction; assay type: functional; conditions: route oral
Rattus norvegicus [10] = assay: Percent protection against Passive Cutaneous Anaphylaxis in rat after 4.0h at dose 100 mg/kg by peroral administration through antigen or antibody reaction; assay type: functional; conditions: route oral
Rattus norvegicus [11] = assay: Percent protection against Passive Cutaneous Anaphylaxis in rat after 4.0h at dose 100 mg/kg by peroral administration through exogenous histamine reaction; assay type: functional; conditions: route oral
Rattus norvegicus [12] = assay: Percent protection against Passive Cutaneous Anaphylaxis in rat after 0.25 hr at dose 100 mg/kg by peroral administration through antigen or antibody reaction; assay type: functional; conditions: route oral
Rattus norvegicus [13] = assay: Percent protection against Passive Cutaneous Anaphylaxis in rat after 0.25 hr at dose 100 mg/kg by peroral administration through exogenous histamine reaction; assay type: functional; conditions: route oral
Rattus norvegicus [14] = assay: Percent protection against Passive Cutaneous Anaphylaxis in rat after 1.0 hr at dose 100 mg/kg by peroral administration through antigen or antibody reaction; assay type: functional; conditions: route oral
Rattus norvegicus [15] = assay: Percent protection against Passive Cutaneous Anaphylaxis in rat after 1.0 hr at dose 100 mg/kg by peroral administration through exogenous histamine reaction; assay type: functional; conditions: route oral
Cavia porcellus [16] = assay: Percent decrease in bronchodilator activity against histamine-induced bronchospasm reaction in guinea pig by intraveneous administration at dose 250 ug/kg; assay type: functional
Cavia porcellus [17] = assay: Percent decrease in bronchodilator activity against histamine-induced bronchospasm reaction in guinea pig by intraveneous administration at dose 4 mg/kg

Compound | Decrease (Cavia porcellus [1]) [%] | Decrease (Cavia porcellus [2]) [%] | Decrease (Rattus norvegicus [3]) [%] | Decrease (Rattus norvegicus [4]) [%] | Decrease (Cavia porcellus [5]) [%] | Protection (Rattus norvegicus [6]) [%] | Protection (Rattus norvegicus [7]) [%] | Protection (Rattus norvegicus [8]) [%] | Protection (Rattus norvegicus [9]) [%] | Protection (Rattus norvegicus [10]) [%] | Protection (Rattus norvegicus [11]) [%] | Protection (Rattus norvegicus [12]) [%] | Protection (Rattus norvegicus [13]) [%] | Protection (Rattus norvegicus [14]) [%] | Protection (Rattus norvegicus [15]) [%] | Decrease (Cavia porcellus [16]) [%] | Decrease (Cavia porcellus [17]) [%]
Cn1c(=O)c2c(ncn2CCCN2CCN(CCCCSc3ccc(Cl)cc3)CC2)n(C)c1=O | 23 | 26 | 0 | 0 | 3 | – | – | – | – | – | – | – | – | – | – | – | –
Cn1c(=O)c2c(ncn2CC(=O)N2CCN(CCCSc3ccccc3)CC2)n(C)c1=O | 21 | 16 | 15 | 10 | 31 | – | – | – | – | – | – | – | – | – | – | – | –
Cn1c(=O)c2c(ncn2CCN2CCN(CCCSc3ccccc3)CC2)n(C)c1=O | 48 | 0 | 28 | 21 | 0 | – | – | – | – | – | – | – | – | – | – | – | –
Cc1ccc(SCCCN2CCN(CCCn3c(=O)c4c(ncn4C)n(C)c3=O)CC2)cc1 | 6 | 24 | 0 | 6.5 | 13 | – | – | – | – | – | – | – | – | – | – | – | –
Cn1c(=O)c2c(ncn2CCCN2CCN(CCCSc3ccccc3)CC2)n(C)c1=O | 69 | 23 | 60 | 62 | 95 | 45 | 28 | 0 | 0 | 0 | 0 | 98 | 46 | 45 | 23 | – | –
CC(=O)OC(CN1CCN(CCCSc2ccccc2)CC1)Cn1cnc2c1c(=O)n(C)c(=O)n2C (stereo not given) | 29 | 17 | 54 | 62 | – | – | – | – | – | – | – | – | – | – | – | 50 | –
Cc1ccc(SCCCN2CCN(CC(O)Cn3cnc4c3c(=O)n(C)c(=O)n4C)CC2)cc1 (stereo not given) | 0 | 0 | 19 | 24 | 5 | – | – | – | – | – | – | – | – | – | – | – | –
Cn1c(=O)c2c(ncn2CN2CCN(CCCSc3ccccc3)CC2)n(C)c1=O | 0 | 0 | 0 | 0 | 9 | – | – | – | – | – | – | – | – | – | – | – | –
Cc1cc(OCCCN2CCN(CC(O)Cn3c(=O)c4c(ncn4C)n(C)c3=O)CC2)cc(C)c1Cl (stereo not given) | 53 | 0 | 8 | 8 | 2 | – | – | – | – | – | – | – | – | – | – | – | –
Cn1c(=O)c2c(ncn2CC(O)CN2CCN(CCCOc3ccc(Cl)cc3)CC2)n(C)c1=O (stereo not given) | 0 | 0 | 22 | 44 | 19 | – | – | – | – | – | – | – | – | – | – | – | –
Cn1cnc2c1c(=O)n(CCCN1CCN(CCCOc3ccccc3)CC1)c(=O)n2C | 47 | 30 | 23 | 0 | 28 | – | – | – | – | – | – | – | – | – | – | – | –
Cn1c(=O)c2c(ncn2CC(O)CN2CCN(CCCOc3ccccc3)CC2)n(C)c1=O (stereo not given) | 43 | 23 | 94 | 78 | 87 | – | – | – | – | – | – | – | – | – | – | – | –
Cn1c(=O)c2c(ncn2CCCN2CCN(CC(O)CSc3ccccc3)CC2)n(C)c1=O (stereo not given) | 0 | 0 | 0 | 0 | 88 | – | – | – | – | – | – | – | – | – | – | – | –
Cn1c(=O)c2c(ncn2CC(O)CN2CCN(CCCSc3ccc(Cl)cc3)CC2)n(C)c1=O (stereo not given) | 0 | 0 | 35 | 67 | 24 | – | – | – | – | – | – | – | – | – | – | – | –
Cn1c(=O)c2c(ncn2C/C=C/CN2CCN(CCCSc3ccccc3)CC2)n(C)c1=O | 20 | 0 | 8 | 4 | 8 | – | – | – | – | – | – | – | – | – | – | – | –
CC(CN1c2ccccc2Sc2ccccc21)N(C)C (stereo not given) [PROMETHAZINE] | 0 | 0 | 30 | 58 | 40 | – | – | – | – | – | – | – | – | – | – | – | –
Cn1c(=O)c2c(ncn2CC(O)CN2CCN(CCCSc3ccccc3)CC2)n(C)c1=O (stereo not given) [TAZIFYLLINE] | 26 | 23 | 54 | 65 | 76 | 82 | 33 | 74 | 52 | 44 | 39 | 100 | 52 | 98 | 49 | – | –
Cn1c(=O)c2nc[nH]c2n(C)c1=O.O [THEOPHYLLINE] | 59 | 72 | 45 | 15 | – | – | – | – | – | – | – | – | – | – | – | – | 56

Source: ChEMBL document CHEMBL1122998, “New antihistaminic theophylline or theobromine derivatives” (1985)
